These are literature values, as cited in patent US20190038644A1, “PREPARATION FOR NASAL-NASOPHARYNGEAL TREATMENT” (priority 2017, published 2019).

In data set [1] the test system is E. Coli and other bacteria. To be noted: versus fructose in cranberries.
Data set [2] has as its system E. coli adherence to human uroepithelial cells. The conditions noted are these: addition of 2.5% D-mannose to E. coli uroepithelial cell suspensions; even when epithelial cells highly receptive.
The conditions of data set [3]: not metabolized like other sugars, does not alter blood sugar levels.

Take `O=C[C@@H](O)[C@@H](O)[C@H](O)[C@H](O)CO` [D-mannose]: the “activity in inhibiting adherence relative to the fructose in cranberries” value in data set [1] was 10 times. Besides, the “inhibition of adherence of E. coli to uroepithelial cells” value in data set [2] is “completely inhibited adherence”. For the same molecule, the “entry into blood stream” value in data set [3] is given as “does not enter the blood stream”.
